{"source": "PubChem BioAssay AID1918943", "about": "(Molecular Pharmacology Branch, DTP, NCI, 2023)", "test_system": "855422-203-R-J1-PDC complex spheroid viability", "experiment": "Anticancer human tumor 855422-203-R-J1-PDC patient-derived bladder carcinoma cell line growth inhibition", "conditions": "for viability, T/C: stronger effect = lower value", "source_text": "Multicellular complex tumor spheroid response to LSD1 Inhibitor Iadademstat in combination with a variety of drugs and investigational agents in selected tumor cell lines\nThe current study was undertaken to assess response to LSD1 inhibitors in combination with standard-of-care drugs and investigational agents in solid tumor complex spheroid models as well as in the K-562 leukemia. Complex spheroids include a stromal component modeled by human endothelial cells (HUVEC) and fibroblasts modeled by human mesenchymal stem cells (MSCs). The concentration ranges selected for each drug and investigational agent were based upon clinically achievable concentrations if the clinical Cmax of the agent was known.\nCompounds. The drugs and investigational agents used in this study are listed on Table 1. All of the agents used, including staurosporine (NSC755774) and gemcitabine (NSC613327), were obtained from the Developmental Therapeutics Program, NCI. FDA-approved anticancer drugs are available from the NCI at http://dtp.nci.nih.gov/branches/dscb/oncology_drugset_explanation.html. Drugs and investigational agents were >95% pure by proton nuclear magnetic resonance (NMR) and liquid chromatography/mass spectrometry (LC/MS). Stock solutions were prepared at 400x in DMSO, stored at -70 degrees C, and diluted in fresh medium prior to their use. The final concentration of DMSO in cell culture wells never exceeded 0.25% (v/v). The FDA-approved anticancer drug set is available from the Developmental Therapeutics Program at https://dtp.cancer.gov/organization/dscb/obtaining/available_plates.htm. All drugs and investigational agents were tested over a range starting from a high concentration at or near the clinical Cmax and decreasing in half-log increments. If the clinical Cmax for an agent had not been determined, the highest concentration tested was 10 microM.\nCell Lines. The patient-derived cancer cell (PDC) lines: 292921-168-R-J2-PDC, K24384-001-R-PDC, and 521955-158-R2-J5-PDC pancreatic carcinomas, 556581-035-R-J1 ovarian carcinoma, 324938-238-R-J1-PDC, 855422-203-R-J1-PDC and 883617-216-R-J1-PDC urothelial bladder carcinomas, 743489-274-T-PDC renal cell carcinoma, 138582-R-J1 Merkel cell tumor, K60290-347-R-J1 and K57222-313-R-J1-PDC glioblastomas, 653999-131-R-J2-PDC, LG0703-F948-PDC, and 349418-098-R-PDC non-small cell lung carcinomas, 885512-296-R-J2-PDC, 171881-019-R-J1-PDC breast carcinomas and 186277-243-T-J2-PDC and 233499-124-R-J2-PDC colon carcinomas were obtained from the NCI Patient-Derived Models Repository (PDMR, https://pdmr.cancer.gov). The established cell lines NCI/ADR-RES (RRID:CVCL_14520 and OVCAR-5 (RRID:CVCL_1628) ovarian carcinomas, 786-O (RRID:CVCL_1051) and A498 (RRID:CVCL_A498) renal cell carcinoma, NCI-H211 (ATCC, cat. CRL-5824; RRID:CVCL_1529), NCI-H196 (ATCC, cat. CRL-5823, RRID:CVCL_1509), SW 1271 (ATCC, cat. CRL-2177, RRID:CVCL_1716) and NCI-H1876 (ATCC, cat. CRL-5902, RRID:CVCL_1503) small cell lung carcinomas, MDA-MB-231 (RRID:CVCL_0062) and MDA-MB-468 (RRID:CVCL_0419)breast carcinomas (10-12). Pooled donor human umbilical vein endothelial cells (HUVEC, Lonza, cat. CC-2519) and human mesenchymal stem cells (hMSC, Lonza, cat. PT-2501) were purchased from Lonza (Walkersville, MD).\nCell Culture. All cells were maintained in an incubator at 37 degrees C and 5% CO2 with 95% humidity. The PDC lines were cultured according to standard operating procedures established by the NCI PDMR (https://pdmr.cancer.gov). Briefly all PDCs were thawed and cultured in Matrigel-coated flasks prepared with a working solution of 1X Ham's F-12 nutrient mix, without supplementation (Invitrogen, Waltham, MA, cat. 11765054), 100 U/mL penicillin-streptomycin (Invitrogen, cat. 15140122), and 2.5% Matrigel (Corning Inc., Corning, NY, cat. 354248) for the first three passages. […]", "note": "Values joined by “and” are separate entries in the source; they are usually repeats but may differ in a detail not shown here. Equal entries are not always repeated."}
{"compound": "COc1ccc([C@@H](O)c2cc(-c3ncnc4cc(N5CCOCC5)ccc34)c(F)cc2Cl)nn1", "note": "+ NC1CCC(NC2CC2c2ccccc2)CC1;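 further: drug exposure lasted 7 days starting on day 3 after seeding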;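 on viability, T/C: luminescence viability as percent of DMSO vehicle wells = 100%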", "values": [{"measurement": "IC50", "setting": "curve of first compound, second compound 0.1 µM", "value": 3.98, "unit": "µM"}, {"measurement": "IC50", "setting": "curve of first compound, second compound 0.316 µM", "value": 3.75, "unit": "µM"}, {"measurement": "IC50", "setting": "curve of first compound, second compound 1 µM", "value": 3.58, "unit": "µM"}, {"measurement": "IC50", "setting": "curve of first compound, second compound 3.16 µM", "value": 3.12, "unit": "µM"}, {"measurement": "IC50", "setting": "curve of first compound, second compound 10 µM", "value": 3.23, "unit": "µM"}, {"measurement": "viability, T/C", "setting": "second compound 0.1 µM, first compound 0.0316 µM", "value": 83.7, "unit": "%"}, {"measurement": "viability, T/C", "setting": "second compound 0.1 µM, first compound 0.1 µM", "value": 88.8, "unit": "%"}, {"measurement": "viability, T/C", "setting": "second compound 0.1 µM, first compound 0.316 µM", "value": 76.3, "unit": "%"}, {"measurement": "viability, T/C", "setting": "second compound 0.1 µM, first compound 1 µM", "value": 73.8, "unit": "%"}, {"measurement": "viability, T/C", "setting": "second compound 0.1 µM, first compound 3.16 µM", "value": 53.1, "unit": "%"}, {"measurement": "viability, T/C", "setting": "second compound 0.1 µM, first compound 10 µM", "value": 34.5, "unit": "%"}, {"measurement": "viability, T/C", "setting": "second compound 0.316 µM, first compound 0.0316 µM", "value": 88.5, "unit": "%"}, {"measurement": "viability, T/C", "setting": "second compound 0.316 µM, first compound 0.1 µM", "value": 89.4, "unit": "%"}, {"measurement": "viability, T/C", "setting": "second compound 0.316 µM, first compound 0.316 µM", "value": 73.4, "unit": "%"}, {"measurement": "viability, T/C", "setting": "second compound 0.316 µM, first compound 1 µM", "value": 69.3, "unit": "%"}, {"measurement": "viability, T/C", "setting": "second compound 0.316 µM, first compound 3.16 µM", "value": 53, "unit": "%"}, {"measurement": "viability, T/C", "setting": "second compound 0.316 µM, first compound 10 µM", "value": 33.5, "unit": "%"}, {"measurement": "viability, T/C", "setting": "second compound 1 µM, first compound 0.0316 µM", "value": 87.1, "unit": "%"}, {"measurement": "viability, T/C", "setting": "second compound 1 µM, first compound 0.1 µM", "value": 84.7, "unit": "%"}, {"measurement": "viability, T/C", "setting": "second compound 1 µM, first compound 0.316 µM", "value": 73.3, "unit": "%"}, {"measurement": "viability, T/C", "setting": "second compound 1 µM, first compound 1 µM", "value": 68, "unit": "%"}, {"measurement": "viability, T/C", "setting": "second compound 1 µM, first compound 3.16 µM", "value": 53, "unit": "%"}, {"measurement": "viability, T/C", "setting": "second compound 1 µM, first compound 10 µM", "value": 30.8, "unit": "%"}, {"measurement": "viability, T/C", "setting": "second compound 3.16 µM, first compound 0.0316 µM", "value": 85.2, "unit": "%"}, {"measurement": "viability, T/C", "setting": "second compound 3.16 µM, first compound 0.1 µM", "value": 78.2, "unit": "%"}, {"measurement": "viability, T/C", "setting": "second compound 3.16 µM, first compound 0.316 µM", "value": 75.1, "unit": "%"}, {"measurement": "viability, T/C", "setting": "second compound 3.16 µM, first compound 1 µM", "value": 68.2, "unit": "%"}, {"measurement": "viability, T/C", "setting": "second compound 3.16 µM, first compound 3.16 µM", "value": 48.4, "unit": "%"}, {"measurement": "viability, T/C", "setting": "second compound 3.16 µM, first compound 10 µM", "value": 31.3, "unit": "%"}, {"measurement": "viability, T/C", "setting": "second compound 10 µM, first compound 0.0316 µM", "value": 76.9, "unit": "%"}, {"measurement": "viability, T/C", "setting": "second compound 10 µM, first compound 0.1 µM", "value": 80, "unit": "%"}, {"measurement": "viability, T/C", "setting": "second compound 10 µM, first compound 0.316 µM", "value": 71.7, "unit": "%"}, {"measurement": "viability, T/C", "setting": "second compound 10 µM, first compound 1 µM", "value": 64.7, "unit": "%"}, {"measurement": "viability, T/C", "setting": "second compound 10 µM, first compound 3.16 µM", "value": 50.6, "unit": "%"}, {"measurement": "viability, T/C", "setting": "second compound 10 µM, first compound 10 µM", "value": 32.8, "unit": "%"}]}
{"compound": "Nc1ccccc1NC(=O)c1ccc(CNC(=O)OCc2cccnc2)cc1", "values": [{"measurement": "viability, T/C", "setting": "compound 0.00949 µM", "value": "92.6% and 94.4%"}, {"measurement": "viability, T/C", "setting": "compound 0.03 µM", "value": "100% and 97%"}, {"measurement": "viability, T/C", "setting": "compound 0.0949 µM", "value": "106% and 105%"}, {"measurement": "viability, T/C", "setting": "compound 0.3 µM", "value": "90.8% and 101%"}, {"measurement": "viability, T/C", "setting": "compound 0.949 µM", "value": "75.4% and 64%"}, {"measurement": "viability, T/C", "setting": "compound 3 µM", "value": "13.4% and 13.2%"}, {"measurement": "IC50", "setting": "curve of compound", "value": "1.51 µM and 1.3 µM"}]}
{"compound": "COc1cc(C2c3cc4c(cc3C(OC3OC5COC(C)OC5C(O)C3O)C3COC(=O)C23)OCO4)cc(OC)c1O", "note": "(centres undefined)", "values": [{"measurement": "viability, T/C", "setting": "compound 0.00949 µM", "value": "88.6% and 97.5%"}, {"measurement": "viability, T/C", "setting": "compound 0.03 µM", "value": "79.6% and 102%"}, {"measurement": "viability, T/C", "setting": "compound 0.0949 µM", "value": "61% and 58.4%"}, {"measurement": "viability, T/C", "setting": "compound 0.3 µM", "value": "28.3% and 31.1%"}, {"measurement": "viability, T/C", "setting": "compound 0.949 µM", "value": "13.5% and 15.1%"}, {"measurement": "viability, T/C", "setting": "compound 3 µM", "value": "6.36% and 6.7%"}, {"measurement": "IC50", "setting": "curve of compound", "value": "0.138 µM and 0.148 µM"}]}
